Reference: US20090047567A1, “Biofuel cell, method for producing the same, electronic apparatus, enzyme-immobilized electrode, and method for producing the same” (SONY CORPORATION, priority 2007, published 2009)

Tests used:
diaphorase (DI) = experiment: Michaelis constant Km and rate constant kcat of the enzymatic reaction using the electron mediator as a substrate (cyclic voltammetry in a solution containing NADH and DI); assay type: biochemical, Bacillus stearothermophilus; conditions: for ten times Km: 10 x Km of the electron mediator for DI, read-out: ten times the determined Km; for Km / kcat: electron mediator as substrate of DI, solution containing sufficient amounts of NADH and DI
Text: GDH (EC1. 1. 1. 47) derived from Bacillus sp. was used as GDH, and DI(EC. 1. 6. 99. −) derived from Bacillus stearothermophilus was used as DI. Both were purchased from Amano Enzyme Inc. (Japan) and directly used without further purification. NADH, poly-L-lycine (PLL, Mw=about 93,800), and sodium polyacrylate (PAANa, Mw=about 240,000) were purchased from Sigma-Aldrich Co. VK3 was purchased from Nacalai Tesque, Inc. (Japan).
Then, the method for measuring the Michaelis constant Km and rate constant kcat of the enzymatic reaction using the electron mediator as a substrate is described.
The following electrochemical equation is established between the Michaelis constant Km and rate constant kcat (R. Matsumoto et al, J. Electroanal. Chem. 535 (2002)37).
wherein Is^lim is the current value of a flat portion of a curve obtained by cyclic voltammetry, nM is the number of electrons of the electron mediator, ns is the number of electrons of the substrate, F is the Faraday constant, A is the electrode surface area, DM is the diffusion constant of the substrate, [E] is the enzyme concentration, and [M]* is the concentration of the electron mediator.

[1] = Redox potential of the electron mediator by cyclic voltammetry in solution; assay type: physicochemical
[2] = Cyclic voltammetry of the GC bio-anode with immobilized VK3, no glucose; assay type: physicochemical; conditions: immobilized VK3 on GC bio-anode; 0.1 M phosphate buffer pH 7.0, glucose absent; vs. Ag|AgCl
Experimental: The surface of a glassy carbon (GC) electrode of 3 mm in diameter which was purchased from BAS Inc. was polished with alumina powder having a particle diameter of 0.05 μm and washed with distilled water. Then, GDH, NADH, DI, and VK3 were immobilized on the GC electrode by a polyion complex method using electrostatic interaction between PAAcNa as polyanion and poly-L-lycine (PLL) as polycation according to the following procedures.
On the GC electrode, 10 μl of an aqueous PLL solution (2% (w/v)), 8 μl of a GDH solution (1 U/μl in a 0.1 M phosphate buffer solution (NaH2PO4 buffer solution) (pH 7.0)), 8 μl of a DI solution (10 U/μl in a phosphate buffer solution), 2 μl of a NADH solution (0.9 μmol/μl in a phosphate buffer solution), 4 μl of a VK3 solution (0.29 M in acetone), and 4 μl of an aqueous PAAcNa solution (0.066% (w/v)) were added in that order. After each of the addition steps, drying was performed at 40° C. for 10 minutes. Before electrochemical measurement, the GC electrode (referred to as a “GC bio-anode” hereinafter) on which an immobilized layer had been formed as described above was rinsed with distilled water for 5 minutes.
Cyclic voltammetry (CV) was performed using the GC bio-anode as a working electrode. […]

SMILES	ten times Km (diaphorase (DI)) [µM]	Km (diaphorase (DI)) [µM]	kcat (diaphorase (DI)) [s⁻¹]	E^o′ vs Ag|AgCl [1]	middle point potential of oxidation and reduction waves [2] [V]
NC1=C(C(=O)O)C(=O)c2ccccc2C1=O [ACNQ, 2-amino-3-carboxy-1,4-naphthoquinone]	20	2	400	−0.26	
NC1=CC(=O)c2ccccc2C1=O [ANQ, 2-amino-1,4-naphthoquinone]	360	36	310	−0.35	
CC1=CC(=O)c2ccccc2C1=O [VK3, 2-methyl-1,4-naphthoquinone]	4	0.4	630	−0.22	−0.17
